The results in this text go back to paper PMC11459959, “Discovery of new acetamide derivatives of 5-indole-1,3,4-oxadiazol-2-thiol as inhibitors of HIV-1 Tat-mediated viral transcription” (Antimicrobial Agents and Chemotherapy, 2024).

Assay [1] deals with PI-resistant HIV-1 strain 11800. As to the kind of experiment: microbe, parasite or virus in culture. Conditions: Human immunodeficiency virus 1, PBMC. Format: cell-based. From the text: (§1) The Tzm-bl-derived dual Tat reporter; TZM-bl/Tat/Rluc (bl-DTR) cells were established from TZM-bl cells using two Dox-inducible lentiviral expression cassettes cloned with Flag-tagged Tat86 and the R-Luc gene, as described in our previous study ([11]). TZM-bl, A3.01, J1.1, and J-Lat 6.3 cells as well as the HIV-1 molecular clone pNL4-3, pNL(AD8), ARV-resistant HIV-1 strains, and HIV-1NL43-IRES-eGFP (pBR43IeG-nef^+, gifted by Dr. Frank Kirchhoff) ([52]) were provided by the National Institute of Health HIV Reagent Program (NIH, Bethesda, MD, USA). HeLa (CCL-2) and 293T (CRL-3216) cell lines were purchased from the American Type Culture Collection (ATCC, Manassas, VA, USA). The bl-DTR, TZM-bl, HeLa, and 293T cells were cultured in Dulbecco’s modified Eagle’s medium supplemented with 1% penicillin–streptomycin and 10% (vol/vol) heat-inactivated fetal bovine serum (all from Gibco-BRL, Gaithersburg, MD, USA), and 1 µg/mL of puromycin and 200 µg/mL of zeocin were additionally supplemented for the bl-DTR cells. PBMCs were purchased from AllCells (Alameda, CA, USA) and cultured as previously described ([12]). The information on ARV-resistant HIV-1 strains was described in previous reports as follows: NNRTI-resistant 12241 and 12243 ([53]); NRTI-resistant 7396, 7406, and 7407 ([54]); INSTI-resistant 11847 and 11849 ([55], [56]); and PI-resistant 11800 and 11803 ([57]). Each molecular HIV-1 clone was transfected to 293T cells, as previously described ([58]), to obtain infectious HIV-1 particles. Virus-containing cell culture supernatants were collected 3 days after transfection, and filtered through a 0.45-µm membrane filter (Millipore Sigma, Burlington, MA, USA) to remove cell debris. The viral titration was performed as described previously ([59]) with some minor modifications. In brief, 1 × 10^4 TZM-bl cells seeded in 96-well plates were infected with 200 µL of virus-containing medium diluted serially twofold. The incubation was for 2 days and the experiment was performed in triplicate; the infection time minimized the virus spread ([59]). The titration of the infectious viral particles was performed with a ß-Gal staining assay using the ßeta-Galactosidase Staining Kit (Mirus Bio, Madison, WI, USA) following the manufacturer’s protocols. In brief, the infected cells were washed with phosphate-buffered saline (PBS) and fixed using a Cell Fixative Working solution. The cells were washed with PBS and stained using the Cell Staining Working Solution containing X-gal. The infected blue-colored cells were counted under a microscope (100× magnification). The infectious virus titer was determined as a mean value of blue-colored cells count × dilution factor and used for determining the multiplicity of infection (MOI) in each infection experiment.
(§2) The inhibitory effects of the compounds on viral replication were determined with some minor modifications, as previously described ([12], [62]). […] PBMCs (4 × 10^5) pre-activated with PHA-M for 3 days were washed with fresh media to remove excess PHA-M and subsequently infected with HIV-1NL4-3 or HIV-1AD8 or PIs-resistant HIV-1 strains as A3.01 infection. After infection, the infectious media were replaced with fresh media supplemented with international 10 units (IU)/mL of IL-2 and the indicated compounds. At 72 h after infection, the inhibitory effect of the compounds on viral replication was determined by measuring the p24 amount, an HIV capsid protein, using an HIV-1 p24 […] kit (PerkinElmer, Waltham, MA, USA). Cell viability was determined as described above. The inhibitory effects on provirus reversing in J1.1 and J-Lat 6.3 cells were determined as previously described ([12], [41], [63]) with some minor modifications.

In assay [2] the test system is PI-resistant HIV-1 strain 11803. As to the kind of experiment: microbe, parasite or virus in culture. Format: cell-based. As to conditions: Human immunodeficiency virus 1, PBMC.
Source text: as §1, §2

A further assay addresses T1, CDK9/Cyclin T (Homo sapiens, UniProt P50750).
T1 construct: purchased BPS Bioscience
The assay is described as follows: CDK9/Cyclin T kinase assay. Format: biochemical. Conditions: in vitro kinase kit, serial dilutions. The procedure:
In brief, 12.5 µL of the Master Mix (Kinase Assay Buffer 1 supplemented with ATP and CDK Substrate Peptide 2) was mixed with 2.5 µL of each test compound diluted serially. The mixture was then mixed with CDK9/Cyclin T Kinase (50 ng/10 µL diluted in 1× Kinase Assay Buffer 1) and incubated for 45 min. The kinase activity was measured using Kinase-Glo Max (Promega). A decreased level of luminescence relative to ATP concentration indicated kinase activity, which was expressed as the percent of DMSO control.

For the next assay, the system named is Tat protein. As to the kind of experiment: Tat protein level in transfected HeLa cells, western blotting. Conditions: HeLa cells transfected with pcDNA3-Flag-Tat86, 1.5 µM, 2 days.

T1 sequence (P50750 whole entry): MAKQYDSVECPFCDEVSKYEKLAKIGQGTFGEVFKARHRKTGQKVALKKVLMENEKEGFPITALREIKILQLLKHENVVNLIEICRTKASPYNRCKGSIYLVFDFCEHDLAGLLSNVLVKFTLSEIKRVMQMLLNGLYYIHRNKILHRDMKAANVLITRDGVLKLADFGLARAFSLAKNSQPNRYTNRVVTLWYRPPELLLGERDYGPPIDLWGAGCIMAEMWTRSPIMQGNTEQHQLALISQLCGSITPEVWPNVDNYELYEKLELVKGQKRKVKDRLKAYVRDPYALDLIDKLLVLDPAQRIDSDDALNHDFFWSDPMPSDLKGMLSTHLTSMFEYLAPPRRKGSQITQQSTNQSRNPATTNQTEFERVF
T1 sequence (O60563 whole entry partner): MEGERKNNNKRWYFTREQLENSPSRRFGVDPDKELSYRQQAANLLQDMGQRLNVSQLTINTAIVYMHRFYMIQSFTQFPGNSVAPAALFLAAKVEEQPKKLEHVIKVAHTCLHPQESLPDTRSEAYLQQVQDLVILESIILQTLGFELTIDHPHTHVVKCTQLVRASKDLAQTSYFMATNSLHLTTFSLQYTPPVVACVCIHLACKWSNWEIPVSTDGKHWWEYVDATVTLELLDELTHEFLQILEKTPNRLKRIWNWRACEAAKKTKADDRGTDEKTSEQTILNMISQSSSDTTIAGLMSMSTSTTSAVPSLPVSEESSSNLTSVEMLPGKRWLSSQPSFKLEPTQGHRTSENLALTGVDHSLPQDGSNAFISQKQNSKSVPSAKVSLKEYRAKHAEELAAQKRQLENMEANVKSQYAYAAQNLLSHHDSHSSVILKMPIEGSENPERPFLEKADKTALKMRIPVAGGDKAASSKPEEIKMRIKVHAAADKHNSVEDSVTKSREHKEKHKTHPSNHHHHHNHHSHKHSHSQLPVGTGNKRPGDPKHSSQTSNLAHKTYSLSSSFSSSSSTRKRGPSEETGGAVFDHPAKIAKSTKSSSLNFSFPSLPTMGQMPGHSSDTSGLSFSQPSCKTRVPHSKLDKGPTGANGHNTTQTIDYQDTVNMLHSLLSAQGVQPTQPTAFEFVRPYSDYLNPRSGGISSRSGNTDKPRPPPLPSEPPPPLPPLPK
Procedure for Tat protein: (C) HeLa cells were transfected with pcDNA3-Flag-Tat86 plasmid. […] The levels of Tat protein were analyzed by western blotting using antibodies against Flag and α-tubulin.
The protein levels of the cell lysates were analyzed using western blotting as previously described ([12]). In brief, whole-cell lysates and samples fractionated in nuclear or cytoplasm were prepared with a 5× SDS sample buffer and subsequently subjected to SDS-polyacrylamide gel electrophoresis. Proteins were subsequently transferred onto polyvinylidene difluoride membranes (Millipore).

`Cc1[nH]c2ccc(-c3nnc(SCC(=O)N4CCCC4)o3)cc2c1C` [Compound 13, 2-((5-(2,3-Dimethyl-1H-indol-5-yl)-1,3,4-oxadiazol-2-yl)thio)-1-(pyrrolidin-1-yl)ethan-1-one]: the concentration for a half-maximal effect (EC50) in assay [1] stood at 810 ± 30 nM; in assay [2] it was 280 ± 40 nM. Also, the “inhibition of CDK9/Cyclin T kinase activity” value at CDK9/Cyclin T is recorded as “did not exhibit”. Moreover, the “decrease of expression of Tat protein” value with Tat protein was “did not exhibit a decrease”.

In the case of `Cc1[nH]c2ccc(-c3nnc(SCC(=O)N4CCCCC4)o3)cc2c1C` [Compound 9, 2-((5-(2,3-Dimethyl-1H-indol-5-yl)-1,3,4-oxadiazol-2-yl)thio)-1-(piperidin-1-yl)ethan-1-one], the results for the EC50 in assay [1] and in assay [2] were 540 ± 250 nM and 260 ± 80 nM, respectively. For the same molecule, the “inhibition of CDK9/Cyclin T kinase activity” value against CDK9/Cyclin T is given as “did not exhibit”. In the assay with Tat protein, the “decrease of expression of Tat protein” value is given as “did not exhibit a decrease”.
